Experimental data taken from ChEMBL document CHEMBL3616434, “Identification of Phenoxyalkylbenzimidazoles with Antitubercular Activity” (J Med Chem, 2015).
≈ marks a conversion by molar mass, not a printed value. Calls of active or inactive are those of the source. The rule behind the calls is not given here.

Legend:
[1] = test system: Mycobacterium tuberculosis; experiment: Bactericidal activity against nonreplicating Mycobacterium tuberculosis assessed as log reduction CFU at MIC after 21 days; type: functional
[2] = test system: Mycobacterium tuberculosis; experiment: Ratio of MBC to MIC for replicating Mycobacterium tuberculosis at 1 to 10 times MIC after 21 days; type: functional
[3] = test system: Mycobacterium tuberculosis; experiment: Antitubercular activity against Mycobacterium tuberculosis H37Rv; type: functional
[4] = test system: Mycobacterium tuberculosis; experiment: Bactericidal activity against nonreplicating Mycobacterium tuberculosis assessed as log reduction CFU at 1 to 10 times MIC after 21 days; type: functional
[5] = test system: Mycobacterium tuberculosis; experiment: Antitubercular activity against Mycobacterium tuberculosis H37Rv ATCC 25618 under aerobic condition after 5 days; type: functional; details: H37Rv ATCC 25618, 120 h
[6] = Selectivity index, ratio of TC50 for African green monkey Vero cells to MIC for Mycobacterium tuberculosis H37Rv ATCC 25618
[7] = Cytotoxicity against African green monkey Vero cells after 2 days by luminescent assay; type: cell-based; details: chlorocebus sabaeus, read-out: TC50
[8] = test system: Mycobacterium tuberculosis; experiment: Bactericidal activity against replicating Mycobacterium tuberculosis assessed as log reduction CFU at 1 to 10 times MIC after 21 days; type: functional
Escherichia coli = experiment: Antimicrobial activity against Escherichia coli after 1 day by serial proportion method; type: functional; details: 24 h
[9] = test system: Mycolicibacterium smegmatis; experiment: Antimicrobial activity against Mycobacterium smegmatis MC2 155 after 5 to 7 days by serial proportion method; type: functional; details: str. MC2 155
[10] = Metabolic stability of the compound in rat liver microsomes assessed as compound turnover at 2 uM after 30 mins by LC-MS analysis; type: ADME; details: read-out: Drug metabolism
[11] = Thermodynamic equilibrium solubility of the compound using 10 mM DMSO at pH 6; type: physicochemical; details: buffer, read-out: Therm_solubility
[12] = Fraction unbound in mouse plasma after 4.5 hrs by LC-MS/MS analysis; type: ADME, cell-free
[13] = test system: Mycobacterium tuberculosis; experiment: Bactericidal activity against replicating Mycobacterium tuberculosis at 1 to 10 times MIC after 21 days; type: functional, organism-based
[14] = Metabolic stability of the compound in mouse liver microsomes assessed as compound turnover at 2 uM after 30 mins by LC-MS analysis; type: ADME; details: read-out: Drug metabolism
[15] = Thermodynamic equilibrium solubility of the compound using 10 mM DMSO at pH 2; type: physicochemical; details: buffer, read-out: Therm_solubility
Staphylococcus aureus = experiment: Antimicrobial activity against Staphylococcus aureus after 2 days by serial proportion method; type: functional; details: 48 h
[16] = Thermodynamic equilibrium solubility of the compound using 10 mM DMSO at pH 7.4; type: physicochemical; details: buffer, read-out: Therm_solubility
[17] = test system: Mycobacterium tuberculosis; experiment: Antitubercular activity against Mycobacterium tuberculosis after 21 to 28 days by serial proportion method; type: functional
[18] = Metabolic stability of the compound in human liver microsomes assessed as compound turnover at 2 uM after 30 mins by LC-MS analysis; type: ADME; details: read-out: Drug metabolism
MDCK = experiment: Passive permeability of the compound from apical to basolateral direction in MDCK cells at 10 uM in presence of P-gp inhibitor; type: ADME, cell-based, Canis lupus familiaris; details: dog

## CCc1nc2ccccc2n1CCCOc1ccccc1
[1]
  FC: >3
[2]
  Ratio: >4
[3]
  MIC: 3.4 µM (≈ 0.953 µg/mL)
[4]
  FC: >3
[5]
  MIC: 5.2 µM (≈ 1.46 µg/mL)
[6]
  Ratio: >9.6
[7]
  CC50 at 48 h: > 50 µM
[8]
  FC: 2

## CCc1nc2ccccc2n1CCCCSc1nnc(-c2ccc(Cl)cc2)o1
Escherichia coli
  MIC99: > 100 µM
[1]
  FC: >3
[9]
  MIC99: > 100 µM
[10]
  metabolised at 0.5 h, 2 µM: 99.9%
[11]
  solubility thermodynamic: < 1 µg/mL
[12]
  fraction unbound at 4.5 h: 0.006
[4]
  FC: >3
[5]
  MIC: 0.1 µM (≈ 0.0413 µg/mL)
[13]
  Activity: inactive
[14]
  metabolised at 0.5 h, 2 µM: 99.8%
[6]
  Ratio: 220
[15]
  solubility thermodynamic: 830 µg/mL (≈ 2010 µM)
Staphylococcus aureus
  MIC99: > 100 µM
[16]
  solubility thermodynamic: < 1 µg/mL
[17]
  MIC99: 2.5 µM (≈ 1.03 µg/mL)
[7]
  CC50 at 48 h: 22 µM
[18]
  metabolised at 0.5 h, 2 µM: 99.9%
MDCK
  permeability: 4.4%
